# Assay results: patent US11492335B2, “Aryl or heteroaryl triazolone derivatives or salts thereof, or pharmaceutical compositions comprising the same” (YUHAN CORPORATION, priority 2018, dated 2022)
# Counter-ions that a name gives are not always drawn. Like-named read-outs stand apart in the source and are kept apart here.
# How the values were obtained:
# Type in all cases: biochemical
# [1] = molecular target: T1, recombinant human MAO-A (monoamine oxidase-A) (Homo sapiens, UniProt P21397); test: Activity on recombinant human MAO-A, Amplex Red method, 0.5 mM tyramine substrate; details: read-out: Inhibitory Activity (IC50, nM) MAO-A
# T1 construct: purchased Sigma-Aldrich
# T1 sequence (P21397 1-527): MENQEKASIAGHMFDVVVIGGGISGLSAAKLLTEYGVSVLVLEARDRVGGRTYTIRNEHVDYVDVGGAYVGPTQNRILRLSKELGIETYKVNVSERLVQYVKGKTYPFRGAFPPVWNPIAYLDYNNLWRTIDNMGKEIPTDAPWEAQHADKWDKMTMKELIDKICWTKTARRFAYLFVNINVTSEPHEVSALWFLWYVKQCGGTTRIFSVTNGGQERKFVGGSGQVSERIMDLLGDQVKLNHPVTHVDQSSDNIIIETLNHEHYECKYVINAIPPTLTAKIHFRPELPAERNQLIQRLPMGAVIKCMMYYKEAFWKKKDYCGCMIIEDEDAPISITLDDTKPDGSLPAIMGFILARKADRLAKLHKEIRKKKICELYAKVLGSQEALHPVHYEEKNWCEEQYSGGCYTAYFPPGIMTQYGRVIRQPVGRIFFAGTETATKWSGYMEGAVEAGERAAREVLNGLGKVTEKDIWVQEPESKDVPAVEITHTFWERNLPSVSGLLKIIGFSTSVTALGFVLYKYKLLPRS
# Method in brief: (§1)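 First, serially diluted compounds were incubated with recombinant enzyme in 50 mM sodium phosphate, pH 7.4, for 30 min at 37° C. Next, Amplex Red (200 uM), HRP (1 U/mL) and tyramine (0.5 mM, MAO-A) or benzylamine (1 mM, MAO-B) were added. Then fluorescence was monitored over 1-2 h and IC50 fitted.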
# [2] = molecular target: T2, recombinant human MAO-B (monoamine oxidase-B) (Homo sapiens, UniProt P27338); test: Activity on recombinant human MAO-B, Amplex Red method, 1 mM benzylamine substrate; details: read-out: Inhibitory Activity (IC50, nM) MAO-B
# T2 construct: purchased Sigma-Aldrich
# T2 sequence (P27338 1-520): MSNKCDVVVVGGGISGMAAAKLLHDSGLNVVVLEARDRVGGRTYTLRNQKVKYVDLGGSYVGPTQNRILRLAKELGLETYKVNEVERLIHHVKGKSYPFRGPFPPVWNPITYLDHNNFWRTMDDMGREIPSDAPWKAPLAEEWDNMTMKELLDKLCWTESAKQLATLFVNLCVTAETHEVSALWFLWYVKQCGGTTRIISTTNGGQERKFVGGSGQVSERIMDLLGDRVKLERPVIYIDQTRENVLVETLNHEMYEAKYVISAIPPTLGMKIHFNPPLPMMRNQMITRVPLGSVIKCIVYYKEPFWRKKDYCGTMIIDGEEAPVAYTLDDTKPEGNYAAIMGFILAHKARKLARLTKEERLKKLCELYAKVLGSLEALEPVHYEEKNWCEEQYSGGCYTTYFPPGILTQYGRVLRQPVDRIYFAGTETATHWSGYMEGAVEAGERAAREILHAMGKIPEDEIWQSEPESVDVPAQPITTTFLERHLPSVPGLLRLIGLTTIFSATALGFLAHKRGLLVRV
# Method in brief: as §1
# [3] = molecular target: T3, recombinant human DAO (diamine oxidase) (Homo sapiens, UniProt P19801); test: Activity on recombinant human DAO, Amplex Red method, 1 mM putrescine substrate; details: recombinant human DAO, read-out: Inhibitory Activity (IC50, nM) DAO
# T3 construct: purchased R&D systems
# T3 sequence (P19801 20-751): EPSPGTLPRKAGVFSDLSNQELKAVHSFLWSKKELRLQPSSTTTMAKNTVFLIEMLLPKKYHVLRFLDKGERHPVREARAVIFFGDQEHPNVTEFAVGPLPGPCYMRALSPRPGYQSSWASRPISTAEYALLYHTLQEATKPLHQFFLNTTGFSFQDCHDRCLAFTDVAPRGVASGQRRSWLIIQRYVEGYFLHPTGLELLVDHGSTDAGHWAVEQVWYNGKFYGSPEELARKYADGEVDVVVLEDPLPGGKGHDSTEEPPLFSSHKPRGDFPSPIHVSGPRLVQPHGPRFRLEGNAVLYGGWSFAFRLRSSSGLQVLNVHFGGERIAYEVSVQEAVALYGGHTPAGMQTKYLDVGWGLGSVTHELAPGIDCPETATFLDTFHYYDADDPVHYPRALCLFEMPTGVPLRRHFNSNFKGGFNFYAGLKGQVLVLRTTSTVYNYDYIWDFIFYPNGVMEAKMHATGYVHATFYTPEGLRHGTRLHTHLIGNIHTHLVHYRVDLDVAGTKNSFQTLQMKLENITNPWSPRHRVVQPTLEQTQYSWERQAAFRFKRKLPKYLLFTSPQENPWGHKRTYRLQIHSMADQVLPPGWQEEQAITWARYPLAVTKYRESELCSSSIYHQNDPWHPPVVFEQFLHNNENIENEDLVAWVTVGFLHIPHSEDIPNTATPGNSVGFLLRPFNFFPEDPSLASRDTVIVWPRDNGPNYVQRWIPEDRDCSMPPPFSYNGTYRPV
# Method in brief: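 Inhibition of recombinant human DAO (diamine oxidase, R&D systems) was assessed with the Amplex Red Hydrogen Peroxide Assay Kit. Hydrogen peroxide produced from 1 mM putrescine was detected through an HRP-coupled reaction that converts Amplex Red into fluorescent resorufin, read at 544 nm excitation and 590 nm emission. IC50 values came from four-parameter logistic fits in GraphPad Prism.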
# [4] = molecular target: T4, recombinant human VAP-1 (Homo sapiens, UniProt Q16853); test: Activity on recombinant human VAP-1, Amplex Red HRP-coupled hydrogen peroxide assay, benzylamine substrate; details: recombinant human VAP-1, benzylamine substrate, read-out: Inhibitory Activity (IC50, nM) human VAP-1
# T4 construct: purchased R&D systems
# T4 sequence (Q16853 1-763): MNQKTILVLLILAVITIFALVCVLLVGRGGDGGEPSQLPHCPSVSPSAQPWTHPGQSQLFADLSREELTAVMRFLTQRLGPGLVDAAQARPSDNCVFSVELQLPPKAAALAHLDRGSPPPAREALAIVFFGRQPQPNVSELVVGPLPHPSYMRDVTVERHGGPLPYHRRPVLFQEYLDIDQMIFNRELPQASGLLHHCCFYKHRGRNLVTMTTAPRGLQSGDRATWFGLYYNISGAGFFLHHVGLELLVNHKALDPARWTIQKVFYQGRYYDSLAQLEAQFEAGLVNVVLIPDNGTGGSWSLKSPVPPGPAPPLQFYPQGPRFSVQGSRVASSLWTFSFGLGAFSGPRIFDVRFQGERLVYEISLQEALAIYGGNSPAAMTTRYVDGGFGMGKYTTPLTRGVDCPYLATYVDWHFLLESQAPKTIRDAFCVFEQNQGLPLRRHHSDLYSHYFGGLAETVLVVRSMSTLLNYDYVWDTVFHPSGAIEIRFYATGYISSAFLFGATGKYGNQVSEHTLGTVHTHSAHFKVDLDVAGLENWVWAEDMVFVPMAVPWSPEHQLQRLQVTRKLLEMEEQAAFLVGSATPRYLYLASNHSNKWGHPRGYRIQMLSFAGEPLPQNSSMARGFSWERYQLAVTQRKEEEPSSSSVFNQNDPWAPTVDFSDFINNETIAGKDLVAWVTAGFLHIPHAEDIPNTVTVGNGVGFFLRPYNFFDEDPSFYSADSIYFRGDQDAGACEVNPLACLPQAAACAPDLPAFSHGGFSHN
# Method in brief: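 H2O2 generation from 1 mM benzylamine was coupled via 1 U/mL HRP to 200 uM Amplex Red; inhibitors, serially diluted 1:3 over 8 points with under 1% final DMSO, had been preincubated 30 min at 37 °C. IC50 from percentage drop in rate.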
# [5] = 1 mM putrescine, * = between 10 and 100 nM, ** = between 300 and 1000 nM
SMILES,IC50 ([1]; 0.5 mM tyramine),IC50 ([2]; 1 mM benzylamine),"IC50 [3, 5]",IC50 ([4]; 30 min preincubation at 37° C.),IC50 ([1]; 0.5 mM tyramine substrate),IC50 ([2]; 1 mM benzylamine substrate),IC50 ([3]; 1 mM putrescine substrate),IC50 [4],"IC50 ([3]; 1 mM putrescine substrate, bound qualified by footnote * / **)"
"Cc1cc(Br)cnc1-n1cnn(C/C(=C/F)CN)c1=O [Example 32, 2-[(2E)-2-(aminomethyl)-3-fluoroprop-2-en-1-yl]-4-(5-bromo-3-methylpyridin-2-yl)-2,4-dihydro-3H-1,2,4-triazol-3-one hydrochloride]",93000 nM,51 nM,> 100000 nM,2.2 nM,,,,,
"Cc1cc(-c2cccc(-n3cnn(C/C(=C/F)CN)c3=O)c2)ccc1N1CCOCC1 [Example 77, 2-[(2E)-2-(aminomethyl)-3-fluoroprop-2-en-1-yl]-4-[3′-methyl-4′-(morpholin-4-yl)biphenyl-3-yl]-2,4-dihydro-3H-1,2,4-triazol-3-one hydrochloride]",> 100000 nM,> 10000 nM,18 nM,0.8 nM,,,,,
"CN(C)c1ccc(/C=C/c2cccc(-n3cnn(C/C(=C/F)CN)c3=O)n2)cc1 [Example 239, 2-[(E)-2-(aminomethyl)-3-fluoro-allyl]-4-[6-[(E)-2-[4-(dimethylamino)phenyl]vinyl]-2-pyridyl]-1,2,4-triazol-3-one hydrochloride]",,,,,> 100000 nM,230 nM,1600 nM,1.6 nM,
"NC/C(=C\F)Cn1ncn(-c2cccc(Br)c2)c1=O [Example 4, 2-[(2E)-2-(aminomethyl)-3-fluoroprop-2-en-1-yl]-4-(3-bromophenyl)-2,4-dihydro-3H-1,2,4-triazol-3-one hydrochloride]",> 100000 nM,175 nM,90 nM,1.2 nM,,,,,
"Cc1cc(-n2cnn(C/C(=C/F)CN)c2=O)cnc1-c1cccc(-c2nc[nH]n2)c1 [Example 116, 2-[(2E)-2-(aminomethyl)-3-fluoroprop-2-en-1-yl]-4-{5-methyl-6-[3-(1H-1,2,4-triazol-3-yl)phenyl]pyridin-3-yl}-2,4-dihydro-3H-1,2,4-triazol-3-one]",> 100000 nM,6020 nM,< 100 nM,0.72 nM,,,,,
"NC/C(=C\F)Cn1ncn(-c2cccc(-c3cccc(-c4noc(C5CC5)n4)c3)n2)c1=O [Example 179, 2-[(2E)-2-(aminomethyl)-3-fluoroprop-2-en-1-yl]-4-{6-[3-(5-cyclopropyl-1,2,4-oxadiazol-3-yl)phenyl]pyridin-2-yl}-2,4-dihydro-3H-1,2,4-triazol-3-one hydrochloride]",,,,,270000 nM,390 nM,3.1 nM,1.1 nM,
"NC/C(=C\F)Cn1ncn(-c2cnc(-c3ccc4nonc4c3)cn2)c1=O [Example 222, 2-[(2E)-2-(aminomethyl)-3-fluoroprop-2-en-1-yl]-4-[5-(2,1,3-benzooxadiazol-5-yl)pyrazin-2-yl]-2,4-dihydro-3H-1,2,4-triazol-3-one]",,,,,770 nM,22 nM,< 100 nM,0.94 nM,
"CS(=O)(=O)c1ccc(-c2ccc(-c3cccc(-n4cnn(C/C(=C/F)CN)c4=O)c3)cc2)cc1 [Example 66, 2-[(2E)-2-(aminomethyl)-3-fluoroprop-2-en-1-yl]-4-[4″-(methylsulfonyl)-1,1′:4′,1″-terphenyl-3-yl]-2,4-dihydro-3H-1,2,4-triazol-3-one hydrochloride]",> 100000 nM,> 10000 nM,3.9 nM,0.66 nM,,,,,
"NC/C(=C\F)Cn1ncn(-c2ccnc(-c3ccc(N4CCOCC4)cc3)c2)c1=O [Example 207, 2-[(2E)-2-(aminomethyl)-3-fluoroprop-2-en-1-yl]-4-{2-[4-(morpholin-4-yl)phenyl]pyridin-4-yl}-2,4-dihydro-3H-1,2,4-triazol-3-one hydrochloride]",,,,,> 100000 nM,1400 nM,< 10 nM,0.45 nM,
"NC/C(=C/F)Cn1ncn(-c2ncc(Br)cc2F)c1=O [Example 35, 2-[(2Z)-2-(aminomethyl)-3-fluoroprop-2-en-1-yl]-4-(5-bromo-3-fluoropyridin-2-yl)-2,4-dihydro-3H-1,2,4-triazol-3-one hydrochloride]",1500 nM,503 nM,14 nM,6.6 nM,,,,,
"NC/C(=C\F)Cn1ncn(-c2cnc(-c3ccc4cn[nH]c4c3)cn2)c1=O [Example 223, 2-[(2E)-2-(aminomethyl)-3-fluoroprop-2-en-1-yl]-4-[5-(1H-indazol-6-yl)pyrazin-2-yl]-2,4-dihydro-3H-1,2,4-triazol-3-one]",,,,,21700 nM,10.5 nM,< 100 nM,2.2 nM,
"NC/C(=C\F)Cn1ncn(-c2cccc(-c3ccc4c(c3)NC(=O)CO4)n2)c1=O [Example 199, hydrochloride]",,,,,> 100000 nM,1900 nM,,4.6 nM,< 100 nM
